Calls of active or inactive are those of the source.
How the values were obtained:
Large T antigen = Large T antigen (Simian virus 40, UniProt P03070); assay type: functional, Betapolyomavirus macacae;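 also: Confirmatory-stage PubChem screen for compounds that inhibit SV40 T antigen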
[1] = target: Glucose-6-phosphate 1-dehydrogenase (Homo sapiens, UniProt P11413); test: inhibition of Homo sapiens G6PD, dose series – biochemical, fluorescence, selectivity assay for P. falciparum G6PD inhibitor project, dose response (AID 504792); assay type: functional
[2] = target: T1, RNA-binding protein pos-1 (Caenorhabditis elegans, UniProt G5EF15); test: disruptors of C. elegans POS-1 RNA interaction – biochemical, fluorescence polarization, dose response (AID 1964);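 also: purified POS-1 fused to maltose binding protein made in E. coli; potency of compounds blocking POS-1 binding to fluorescent RNA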
T1 sequence (G5EF15 whole entry): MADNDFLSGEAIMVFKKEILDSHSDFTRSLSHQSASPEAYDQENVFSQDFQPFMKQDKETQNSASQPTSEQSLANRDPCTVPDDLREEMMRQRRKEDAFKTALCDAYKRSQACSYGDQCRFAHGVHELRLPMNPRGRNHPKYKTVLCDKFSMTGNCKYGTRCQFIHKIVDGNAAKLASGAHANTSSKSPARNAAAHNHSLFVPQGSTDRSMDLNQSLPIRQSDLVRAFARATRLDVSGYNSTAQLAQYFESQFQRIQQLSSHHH

[3] = target: UDP-galactopyranose mutase (Mycobacterium tuberculosis, UniProt P9WIQ1); test: Inhibitors of Mycobacterium tuberculosis UDP-galactopyranose mutase (UGM) enzyme Measured in Biochemical System Using Plate Reader - 2105-02_Inhibitor_Dose_CherryPick_Activity. [Related pubchem assays (depositor defined):AID504439]
[4] = target: DNA dC->dU-editing enzyme APOBEC-3A (Homo sapiens, UniProt P31941); test: Dose Response confirmation of small molecule APOBEC3A DNA Deaminase Inhibitors via a fluorescence-based single-stranded DNA deaminase assay. [Related pubchem assays (depositor defined):AID493011, AID493024]; assay type: functional
[5] = target: T2, Zinc finger protein mex-5 (Caenorhabditis elegans, UniProt Q9XUB2); test: potency of MEX-5 RNA-binding blockers – biochemical, C. elegans, fluorescence polarization, dose response (AID 1960)
T2 sequence (Q9XUB2 whole entry): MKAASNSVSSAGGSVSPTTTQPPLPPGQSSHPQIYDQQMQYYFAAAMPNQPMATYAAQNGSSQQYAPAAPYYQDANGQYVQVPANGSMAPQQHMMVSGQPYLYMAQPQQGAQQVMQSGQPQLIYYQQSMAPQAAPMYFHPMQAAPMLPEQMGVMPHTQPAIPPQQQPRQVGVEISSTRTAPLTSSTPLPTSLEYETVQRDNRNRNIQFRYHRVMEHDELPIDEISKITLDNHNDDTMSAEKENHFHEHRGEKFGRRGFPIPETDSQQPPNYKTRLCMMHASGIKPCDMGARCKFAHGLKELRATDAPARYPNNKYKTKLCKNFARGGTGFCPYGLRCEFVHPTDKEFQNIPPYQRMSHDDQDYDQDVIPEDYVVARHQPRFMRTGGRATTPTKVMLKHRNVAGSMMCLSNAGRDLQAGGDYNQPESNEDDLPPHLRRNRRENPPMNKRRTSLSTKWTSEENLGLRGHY

[6] = target: DNA dC->dU-editing enzyme APOBEC-3G (Homo sapiens, UniProt Q9HC16); assay type: functional;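 also: Dose-response counterscreen measuring inhibition of APOBEC3G DNA deaminase activity, run while confirming APOBEC3A inhibitors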
Caspase-3 = target: T3, Caspase-3 (Homo sapiens, UniProt P42574); assay type: functional;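 also: Dose-response selectivity test against caspase-3 for candidate inhibitors of sentrin-specific proteases (SENPs)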
T3 sequence (P42574 whole entry): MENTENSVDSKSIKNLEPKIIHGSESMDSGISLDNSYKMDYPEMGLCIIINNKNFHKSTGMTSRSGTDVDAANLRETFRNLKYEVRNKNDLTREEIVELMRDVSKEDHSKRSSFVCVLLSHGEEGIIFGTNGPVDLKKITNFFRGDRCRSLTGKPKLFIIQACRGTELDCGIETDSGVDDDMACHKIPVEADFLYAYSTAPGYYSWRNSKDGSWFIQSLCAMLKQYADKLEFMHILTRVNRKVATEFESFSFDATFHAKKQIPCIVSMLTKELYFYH

[7] = target: T4, Sentrin-specific protease 8 (Homo sapiens, UniProt Q96LD8); assay type: functional;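 also: luminescence read-out of SENP8 inhibition, dose-response confirmation following an ultra-high-throughput screen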
T4 sequence (Q96LD8 whole entry): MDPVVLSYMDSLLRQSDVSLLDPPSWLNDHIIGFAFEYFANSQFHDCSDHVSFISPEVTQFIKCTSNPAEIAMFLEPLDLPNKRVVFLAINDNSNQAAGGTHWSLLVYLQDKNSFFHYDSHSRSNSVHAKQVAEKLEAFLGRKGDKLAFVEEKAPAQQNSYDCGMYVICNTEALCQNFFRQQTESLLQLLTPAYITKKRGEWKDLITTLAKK

[8] = target: T5, Sentrin-specific protease 6 (Homo sapiens, UniProt Q9GZR1); assay type: functional;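 also: Luminescence-based dose-response confirmatory assay of SENP6 inhibition, following up an ultra-high-throughput screen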
T5 sequence (Q9GZR1 whole entry): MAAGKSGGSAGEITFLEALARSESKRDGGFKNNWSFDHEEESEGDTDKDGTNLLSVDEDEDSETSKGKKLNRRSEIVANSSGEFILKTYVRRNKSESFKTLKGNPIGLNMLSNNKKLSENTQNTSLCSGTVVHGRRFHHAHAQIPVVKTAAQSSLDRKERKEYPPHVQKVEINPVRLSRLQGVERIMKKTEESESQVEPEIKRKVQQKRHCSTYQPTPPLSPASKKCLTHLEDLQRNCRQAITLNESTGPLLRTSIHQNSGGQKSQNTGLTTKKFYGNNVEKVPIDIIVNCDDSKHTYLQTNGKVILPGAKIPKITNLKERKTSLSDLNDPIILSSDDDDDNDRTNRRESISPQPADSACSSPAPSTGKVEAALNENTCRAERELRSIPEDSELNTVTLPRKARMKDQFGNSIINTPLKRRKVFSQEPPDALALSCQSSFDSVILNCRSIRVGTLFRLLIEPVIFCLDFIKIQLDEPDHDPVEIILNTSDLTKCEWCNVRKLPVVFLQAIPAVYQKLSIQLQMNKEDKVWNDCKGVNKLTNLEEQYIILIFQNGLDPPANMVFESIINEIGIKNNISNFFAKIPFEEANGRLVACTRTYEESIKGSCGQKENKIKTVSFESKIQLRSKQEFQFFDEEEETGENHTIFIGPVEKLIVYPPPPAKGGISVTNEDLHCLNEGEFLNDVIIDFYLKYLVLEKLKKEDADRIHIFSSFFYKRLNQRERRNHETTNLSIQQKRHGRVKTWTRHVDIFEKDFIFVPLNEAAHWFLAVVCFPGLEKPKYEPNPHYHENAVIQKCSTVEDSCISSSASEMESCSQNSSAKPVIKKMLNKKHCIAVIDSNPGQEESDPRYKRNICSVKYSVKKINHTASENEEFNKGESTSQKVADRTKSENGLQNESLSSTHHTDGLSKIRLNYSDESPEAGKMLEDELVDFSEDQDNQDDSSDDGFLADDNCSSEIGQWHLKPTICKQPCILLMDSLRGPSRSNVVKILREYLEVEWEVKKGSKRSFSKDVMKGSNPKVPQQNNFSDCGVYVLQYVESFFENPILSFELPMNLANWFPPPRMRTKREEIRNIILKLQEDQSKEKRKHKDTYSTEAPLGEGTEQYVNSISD

[9] = target: T6, Sentrin-specific protease 7 (Homo sapiens, UniProt Q9BQF6); assay type: functional;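 also: Luminescence-based dose-response confirmation of ultra-high-throughput screening hits, measuring inhibition of SENP7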
T6 sequence (Q9BQF6 whole entry): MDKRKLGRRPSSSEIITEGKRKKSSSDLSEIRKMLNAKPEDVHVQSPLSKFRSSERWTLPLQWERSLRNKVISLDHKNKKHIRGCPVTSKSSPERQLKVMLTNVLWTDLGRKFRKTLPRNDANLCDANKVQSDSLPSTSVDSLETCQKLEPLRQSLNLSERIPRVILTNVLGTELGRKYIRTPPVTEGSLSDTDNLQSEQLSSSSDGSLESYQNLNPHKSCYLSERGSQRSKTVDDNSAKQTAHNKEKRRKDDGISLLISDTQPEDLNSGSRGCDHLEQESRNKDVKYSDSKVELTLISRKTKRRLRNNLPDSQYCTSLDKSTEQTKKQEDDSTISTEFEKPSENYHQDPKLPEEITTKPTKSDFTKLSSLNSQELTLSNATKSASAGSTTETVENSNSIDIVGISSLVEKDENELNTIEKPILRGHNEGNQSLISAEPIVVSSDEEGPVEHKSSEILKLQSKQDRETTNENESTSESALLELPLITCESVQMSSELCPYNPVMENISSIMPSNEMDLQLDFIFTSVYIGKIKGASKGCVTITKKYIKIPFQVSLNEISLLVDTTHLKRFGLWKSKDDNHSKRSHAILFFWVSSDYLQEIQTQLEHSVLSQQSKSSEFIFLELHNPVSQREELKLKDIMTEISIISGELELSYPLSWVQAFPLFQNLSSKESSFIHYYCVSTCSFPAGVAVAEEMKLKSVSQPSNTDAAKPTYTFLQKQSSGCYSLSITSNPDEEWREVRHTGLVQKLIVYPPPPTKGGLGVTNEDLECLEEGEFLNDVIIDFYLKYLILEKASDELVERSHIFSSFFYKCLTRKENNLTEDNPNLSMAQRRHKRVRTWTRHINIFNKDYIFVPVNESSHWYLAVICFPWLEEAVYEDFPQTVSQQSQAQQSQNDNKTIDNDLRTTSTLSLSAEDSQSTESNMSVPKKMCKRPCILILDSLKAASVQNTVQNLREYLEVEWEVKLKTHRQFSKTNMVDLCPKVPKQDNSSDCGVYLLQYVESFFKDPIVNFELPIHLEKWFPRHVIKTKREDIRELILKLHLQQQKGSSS

HEK293 [10] = test: cells; assay type: functional, cell-based; details: Homo sapiens
HEK293 [11] = test: cells; assay type: functional, cell-based; details: Homo sapiens; remark: listed apart in the source
HEK293 [12] = test: cells; assay type: functional, cell-based; details: Homo sapiens; remark: listed apart in the source
Phospholipase A2 = Phospholipase A2 (Homo sapiens, UniProt P04054); assay type: functional;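 also: confirmatory dose-response counterscreen on phospholipase A2, testing hits that came from an ultra-high-throughput screen for ATG4B inhibitors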
HEK293 [13] = test: inhibition of NOD1-driven NF-kB reporter – cell-based, luminescence, uHTS, primary screen (AID 1578); assay type: functional; details: Homo sapiens
HEK293 [14] = test: NOD2 signaling inhibitors in MDP-stimulated cells, cell-based, uHTS, luminescence (AID 2001); assay type: functional; details: Homo sapiens
Cysteine protease ATG4B = Cysteine protease ATG4B (Homo sapiens, UniProt Q9Y4P1); assay type: functional;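 also: Fluorescence-based dose-response confirmation assay measuring inhibition of ATG4B activity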
[15] = target: Nucleotide-binding oligomerization domain-containing protein 2 (Homo sapiens, UniProt Q9HC29); test: inhibition of NOD2-driven NF-kB reporter – cell-based, luminescence, uHTS, HEK293 (AID 1566); assay type: functional
Chain of Nucleotide-binding oligomerization domain-containing protein 2 (Q9HC29 whole entry, the tested form may be a part): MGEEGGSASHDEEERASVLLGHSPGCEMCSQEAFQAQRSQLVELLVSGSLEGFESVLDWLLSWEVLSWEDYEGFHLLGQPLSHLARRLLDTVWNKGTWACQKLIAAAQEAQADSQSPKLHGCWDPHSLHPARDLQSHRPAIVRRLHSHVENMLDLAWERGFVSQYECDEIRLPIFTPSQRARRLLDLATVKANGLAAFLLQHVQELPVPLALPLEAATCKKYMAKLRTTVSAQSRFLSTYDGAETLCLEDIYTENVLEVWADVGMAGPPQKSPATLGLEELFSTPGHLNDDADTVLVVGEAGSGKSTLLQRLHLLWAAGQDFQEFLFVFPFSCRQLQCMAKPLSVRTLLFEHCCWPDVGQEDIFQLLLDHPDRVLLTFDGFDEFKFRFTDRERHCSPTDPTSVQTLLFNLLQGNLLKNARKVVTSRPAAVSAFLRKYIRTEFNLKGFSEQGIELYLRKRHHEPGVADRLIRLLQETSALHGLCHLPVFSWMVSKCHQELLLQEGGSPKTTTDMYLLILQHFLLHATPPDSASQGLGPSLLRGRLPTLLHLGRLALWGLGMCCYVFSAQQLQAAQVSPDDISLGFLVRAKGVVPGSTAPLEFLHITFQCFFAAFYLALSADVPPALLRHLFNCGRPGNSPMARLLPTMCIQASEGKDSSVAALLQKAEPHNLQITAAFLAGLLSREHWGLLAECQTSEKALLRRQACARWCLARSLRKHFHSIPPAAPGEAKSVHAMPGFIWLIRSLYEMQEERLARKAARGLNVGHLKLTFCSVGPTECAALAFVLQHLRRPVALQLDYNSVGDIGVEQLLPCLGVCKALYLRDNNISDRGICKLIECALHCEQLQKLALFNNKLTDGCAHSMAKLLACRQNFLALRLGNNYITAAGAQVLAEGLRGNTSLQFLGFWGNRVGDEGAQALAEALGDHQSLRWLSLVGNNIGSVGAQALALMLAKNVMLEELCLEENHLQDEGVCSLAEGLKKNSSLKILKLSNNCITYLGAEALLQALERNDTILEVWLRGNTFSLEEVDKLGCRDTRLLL

Chain of Phospholipase A2 (P04054 whole entry): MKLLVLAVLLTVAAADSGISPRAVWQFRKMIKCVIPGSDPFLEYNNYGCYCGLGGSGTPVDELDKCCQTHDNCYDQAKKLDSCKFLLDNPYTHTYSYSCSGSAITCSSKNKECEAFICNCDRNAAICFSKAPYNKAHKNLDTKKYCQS
Chain of DNA dC->dU-editing enzyme APOBEC-3G (Q9HC16 whole entry): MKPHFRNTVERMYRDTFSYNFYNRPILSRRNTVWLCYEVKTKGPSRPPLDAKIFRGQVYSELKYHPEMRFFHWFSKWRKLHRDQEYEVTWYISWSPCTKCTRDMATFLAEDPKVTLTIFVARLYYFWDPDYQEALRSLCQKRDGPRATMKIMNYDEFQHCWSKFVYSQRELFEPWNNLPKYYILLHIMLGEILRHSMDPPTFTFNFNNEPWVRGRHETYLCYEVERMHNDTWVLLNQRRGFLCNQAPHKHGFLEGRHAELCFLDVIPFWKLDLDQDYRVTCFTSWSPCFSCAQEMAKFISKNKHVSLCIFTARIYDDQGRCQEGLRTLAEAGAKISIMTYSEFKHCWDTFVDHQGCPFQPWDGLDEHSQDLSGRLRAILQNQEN
Chain of Glucose-6-phosphate 1-dehydrogenase (P11413 whole entry, the tested form may be a part): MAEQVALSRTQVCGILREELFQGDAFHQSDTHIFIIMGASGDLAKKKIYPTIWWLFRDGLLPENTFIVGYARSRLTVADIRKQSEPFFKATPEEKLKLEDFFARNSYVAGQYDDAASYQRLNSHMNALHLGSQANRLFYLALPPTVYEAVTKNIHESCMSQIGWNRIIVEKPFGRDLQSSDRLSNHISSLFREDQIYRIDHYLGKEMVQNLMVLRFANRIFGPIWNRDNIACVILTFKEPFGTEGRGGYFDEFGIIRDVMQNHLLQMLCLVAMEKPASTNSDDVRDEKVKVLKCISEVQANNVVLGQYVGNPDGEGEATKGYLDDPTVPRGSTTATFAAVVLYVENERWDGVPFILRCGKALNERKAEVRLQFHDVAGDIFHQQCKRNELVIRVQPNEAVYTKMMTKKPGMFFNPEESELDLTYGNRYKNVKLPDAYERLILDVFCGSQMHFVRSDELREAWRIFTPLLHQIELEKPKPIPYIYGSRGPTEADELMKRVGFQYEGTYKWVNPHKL
Chain of DNA dC->dU-editing enzyme APOBEC-3A (P31941 whole entry): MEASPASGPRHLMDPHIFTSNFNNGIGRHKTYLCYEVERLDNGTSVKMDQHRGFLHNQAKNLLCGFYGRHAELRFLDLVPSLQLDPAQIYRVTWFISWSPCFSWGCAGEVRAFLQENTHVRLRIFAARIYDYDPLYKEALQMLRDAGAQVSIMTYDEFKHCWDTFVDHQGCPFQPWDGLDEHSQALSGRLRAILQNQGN
Chain of UDP-galactopyranose mutase (P9WIQ1 whole entry): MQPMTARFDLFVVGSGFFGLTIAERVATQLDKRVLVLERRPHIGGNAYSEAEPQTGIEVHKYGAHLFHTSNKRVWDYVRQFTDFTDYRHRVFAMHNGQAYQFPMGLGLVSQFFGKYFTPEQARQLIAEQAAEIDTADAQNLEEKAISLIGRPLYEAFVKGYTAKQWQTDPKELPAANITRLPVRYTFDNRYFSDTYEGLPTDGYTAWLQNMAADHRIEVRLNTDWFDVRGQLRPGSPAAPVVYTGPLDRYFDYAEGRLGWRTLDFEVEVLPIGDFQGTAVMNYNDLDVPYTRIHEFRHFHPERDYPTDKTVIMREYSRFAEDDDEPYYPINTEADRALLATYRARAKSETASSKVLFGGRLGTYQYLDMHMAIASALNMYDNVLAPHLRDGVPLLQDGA
Chain of Cysteine protease ATG4B (Q9Y4P1 whole entry, the tested form may be a part): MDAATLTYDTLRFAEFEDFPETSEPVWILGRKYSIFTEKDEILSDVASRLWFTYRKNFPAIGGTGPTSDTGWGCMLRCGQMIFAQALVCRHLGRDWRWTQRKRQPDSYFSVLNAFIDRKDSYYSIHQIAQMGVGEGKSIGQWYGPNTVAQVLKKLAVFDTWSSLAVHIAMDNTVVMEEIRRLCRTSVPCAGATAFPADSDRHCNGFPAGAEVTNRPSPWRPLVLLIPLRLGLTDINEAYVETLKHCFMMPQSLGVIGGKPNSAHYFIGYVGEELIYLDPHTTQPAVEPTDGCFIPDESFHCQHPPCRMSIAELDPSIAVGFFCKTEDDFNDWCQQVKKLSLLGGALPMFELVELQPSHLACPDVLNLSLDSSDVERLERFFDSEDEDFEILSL
Chain of Large T antigen (P03070 whole entry): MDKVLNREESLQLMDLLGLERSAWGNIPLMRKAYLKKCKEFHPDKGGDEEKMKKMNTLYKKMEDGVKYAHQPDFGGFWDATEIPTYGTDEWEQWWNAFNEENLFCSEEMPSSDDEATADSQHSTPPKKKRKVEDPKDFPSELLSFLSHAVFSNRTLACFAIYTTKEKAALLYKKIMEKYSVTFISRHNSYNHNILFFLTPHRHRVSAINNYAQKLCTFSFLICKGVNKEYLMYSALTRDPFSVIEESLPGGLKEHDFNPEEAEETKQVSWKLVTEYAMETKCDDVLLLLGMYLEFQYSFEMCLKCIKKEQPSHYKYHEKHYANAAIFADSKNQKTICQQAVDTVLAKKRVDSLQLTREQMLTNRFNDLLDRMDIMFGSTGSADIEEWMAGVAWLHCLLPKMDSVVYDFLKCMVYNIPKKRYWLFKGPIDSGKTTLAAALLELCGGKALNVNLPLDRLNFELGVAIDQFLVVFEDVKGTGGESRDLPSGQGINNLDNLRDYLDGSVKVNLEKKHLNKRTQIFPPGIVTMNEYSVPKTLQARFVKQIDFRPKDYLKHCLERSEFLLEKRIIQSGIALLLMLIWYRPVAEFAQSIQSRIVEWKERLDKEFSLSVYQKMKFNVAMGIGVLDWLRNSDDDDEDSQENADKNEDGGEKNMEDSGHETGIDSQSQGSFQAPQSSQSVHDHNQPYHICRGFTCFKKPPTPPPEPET

`c1cncc(CNc2ccc3c(c2)OCO3)c1` was tested, and the IC50 (Large T antigen) was 25.4 µM (active) and the IC50 [1] was > 80 µM (inactive).
With `NC(=O)C[n+]1cccc2ccccc21` the EC50 [2] was 29.7 µM (active), the AC50 [3] was 311 µM (active) and the IC50 [4] was 2.69 µM (active). The EC50 [5] was 22.3 µM (active) and the IC50 [6] was 2.52 µM (active).
With `c1csc(-c2csc(-c3cccs3)n2)c1` the IC50 (Caspase-3) was 25.3 µM (active), the IC50 [7] was 28.2 µM (active) and the IC50 [8] was 20.1 µM (active). For the same compound, the IC50 [9] was 5.92 µM (active).
`CC(=O)Nc1ccc(C(=O)Nc2nc(-c3cc(C)n(Cc4ccccc4)c3C)cs2)cc1` was tested, and the IC50 (HEK293 [10]) was > 20 µM (inactive), the IC50 (HEK293 [11]) was > 20 µM (inactive) and the IC50 (HEK293 [12]) was > 20 µM (inactive). The IC50 (Phospholipase A2) was 5.37 µM (active), the EC50 (HEK293 [13]) was > 20 µM (inactive) and the IC50 (HEK293 [14]) was > 20 µM (inactive). The IC50 (Cysteine protease ATG4B) was 10.2 µM (active) and the EC50 [15] was > 20 µM (inactive).
With `CC1=NN(C(N)=S)C(=O)C1N=Nc1ccc(Cl)cc1` (stereo not drawn) the IC50 (Caspase-3) was 1.59 µM (active), the IC50 [7] was 2.58 µM (active) and the IC50 [8] was 2.96 µM (active). For the same compound, the IC50 [9] was 2.07 µM (active).

Reference: ChEMBL document CHEMBL1201862, “PubChem BioAssay data set” (2004)
